Measurements as given in patent publication US20220160650A1, “GEL, OINTMENT, AND FOAM FORMULATIONS OF TAPINAROF AND METHODS OF USE” (Dermavant Sciences GmbH, priority 2020, published 2022).

Columns and labels:
[1] = Purity of tapinarof in individual excipients on storage, related substances HPLC method; type: physicochemical
Method in brief: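 The stability of the stilbene active ingredient was tested in individual excipients, one excipient per sample. Samples were analysed at time zero and after storage for up to 2 weeks. Purity of the active ingredient was determined by HPLC.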

[2] = Saturated solubility of tapinarof in individual excipients, by tapinarof assay HPLC or visually (Table 2); type: physicochemical; settings: for Average saturated solubility of DMVT-505: visual solubility
Method in brief: (§1)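 Using either visual inspection or an HPLC assay for the active ingredient, the saturated solubility of a stilbene active ingredient was determined in a series of individual pharmaceutical excipients. Only one excipient went into each sample, so every value refers to solubility in that excipient alone.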

[3] = Tapinarof saturated solubility in excipients (Table 1); type: physicochemical
Method in brief: as §1

[4] = Gao et al., Journal of Polymer Research 2011; cited from earlier work

For `CC(C)c1c(O)cc(/C=C/c2ccccc2)cc1O` [tapinarof, 3,5-Dihydroxy-4-isopropyl-trans-stilbene], the “Purity of DMVT-505” value ([1]; in Almond oil, t = 0) was 100.00 % area, the “Purity of DMVT-505” value ([1]; in Almond oil, t = 2 weeks, 40° C.) was 99.96 % area and the “Purity of DMVT-505” value ([1]; in Almond oil, t = 2 weeks, 70° C.) was 99.84 % area. For the same molecule, the “Purity of DMVT-505” value ([1]; in Arlasolve DMI, t = 0) was 99.55 % area, the “Purity of DMVT-505” value ([1]; in Arlasolve DMI, t = 2 weeks, 40° C.) was 96.75 % area and the “Purity of DMVT-505” value ([1]; in Arlasolve DMI, t = 2 weeks, 70° C.) was 95.14 % area. For the same molecule, the “Purity of DMVT-505” value ([1]; in Castor oil, t = 0) was 100.00 % area, the “Purity of DMVT-505” value ([1]; in Castor oil, t = 2 weeks, 40° C.) was 100.00 % area and the “Purity of DMVT-505” value ([1]; in Castor oil, t = 2 weeks, 70° C.) was 99.92 % area. For the same molecule, the “Purity of DMVT-505” value ([1]; in Crodamol GTCC, t = 0) was 99.92 % area, the “Purity of DMVT-505” value ([1]; in Crodamol GTCC, t = 2 weeks, 40° C.) was 96.46 % area and the “Purity of DMVT-505” value ([1]; in Crodamol GTCC, t = 2 weeks, 70° C.) was 96.94 % area. For the same molecule, the “Purity of DMVT-505” value ([1]; in Diethyl sebacate, t = 0) was 100.00 % area, the “Purity of DMVT-505” value ([1]; in Diethyl sebacate, t = 2 weeks, 40° C.) was 96.72 % area and the “Purity of DMVT-505” value ([1]; in Diethyl sebacate, t = 2 weeks, 70° C.) was 95.78 % area. The “Purity of DMVT-505” value ([1]; in Diisopropyl adipate, t = 0) was 100.00 % area, the “Purity of DMVT-505” value ([1]; in Diisopropyl adipate, t = 2 weeks, 40° C.) was 99.79 % area and the “Purity of DMVT-505” value ([1]; in Diisopropyl adipate, t = 2 weeks, 70° C.) was 95.94 % area. The “Purity of DMVT-505” value ([1]; in Dipropylene glycol, t = 0) was 99.97 % area, the “Purity of DMVT-505” value ([1]; in Dipropylene glycol, t = 2 weeks, 40° C.) was 99.83 % area and the “Purity of DMVT-505” value ([1]; in Dipropylene glycol, t = 2 weeks, 70° C.) was 98.89 % area. For the same molecule, the “Purity of DMVT-505” value ([1]; in Ethanol, t = 0) was 99.89 % area, the “Purity of DMVT-505” value ([1]; in Ethanol, t = 2 weeks, 40° C.) was 99.72 % area and the “Purity of DMVT-505” value ([1]; in Ethanol, t = 2 weeks, 70° C.) was 98.57 % area. The “Purity of DMVT-505” value ([1]; in Hexylene glycol, t = 0) was 99.96 % area, the “Purity of DMVT-505” value ([1]; in Hexylene glycol, t = 2 weeks, 40° C.) was 99.54 % area and the “Purity of DMVT-505” value ([1]; in Hexylene glycol, t = 2 weeks, 70° C.) was 98.76 % area. For the same molecule, the “Purity of DMVT-505” value ([1]; in IPA, t = 0) was 99.91 % area, the “Purity of DMVT-505” value ([1]; in IPA, t = 2 weeks, 40° C.) was 99.86 % area and the “Purity of DMVT-505” value ([1]; in IPA, t = 2 weeks, 70° C.) was 99.25 % area. For the same molecule, the “Purity of DMVT-505” value ([1]; in IPM, t = 0) was 100.00 % area, the “Purity of DMVT-505” value ([1]; in IPM, t = 2 weeks, 40° C.) was 99.32 % area and the “Purity of DMVT-505” value ([1]; in IPM, t = 2 weeks, 70° C.) was 92.15 % area. For the same molecule, the “Purity of DMVT-505” value ([1]; in IPP, t = 0) was 100.00 % area, the “Purity of DMVT-505” value ([1]; in IPP, t = 2 weeks, 40° C.) was 99.30 % area and the “Purity of DMVT-505” value ([1]; in IPP, t = 2 weeks, 70° C.) was 99.52 % area. For the same molecule, the “Purity of DMVT-505” value ([1]; in Jojoba oil, t = 0) was 99.97 % area, the “Purity of DMVT-505” value ([1]; in Jojoba oil, t = 2 weeks, 40° C.) was 98.98 % area and the “Purity of DMVT-505” value ([1]; in Jojoba oil, t = 2 weeks, 70° C.) was 99.09 % area. The “Purity of DMVT-505” value ([1]; in Kollicream ® 3C, t = 0) was 100.00 % area, the “Purity of DMVT-505” value ([1]; in Kollicream ® 3C, t = 2 weeks, 40° C.) was 98.98 % area and the “Purity of DMVT-505” value ([1]; in Kollicream ® 3C, t = 2 weeks, 70° C.) was 96.51 % area. For the same molecule, the “Purity of DMVT-505” value ([1]; in Kollicream ® OA, t = 0) was 100.00 % area, the “Purity of DMVT-505” value ([1]; in Kollicream ® OA, t = 2 weeks, 40° C.) was 99.66 % area and the “Purity of DMVT-505” value ([1]; in Kollicream ® OA, t = 2 weeks, 70° C.) was 99.46 % area. The “Purity of DMVT-505” value ([1]; in Kollicream ® OD, t = 0) was 100.00 % area, the “Purity of DMVT-505” value ([1]; in Kollicream ® OD, t = 2 weeks, 40° C.) was 99.38 % area and the “Purity of DMVT-505” value ([1]; in Kollicream ® OD, t = 2 weeks, 70° C.) was 98.11 % area. For the same molecule, the “Purity of DMVT-505” value ([1]; in MethoxyPEG 350, t = 0) was 99.59 % area, the “Purity of DMVT-505” value ([1]; in MethoxyPEG 350, t = 2 weeks, 40° C.) was 98.42 % area and the “Purity of DMVT-505” value ([1]; in MethoxyPEG 350, t = 2 weeks, 70° C.) was 95.50 % area. The “Purity of DMVT-505” value ([1]; in Olive oil, t = 0) was 100.00 % area, the “Purity of DMVT-505” value ([1]; in Olive oil, t = 2 weeks, 40° C.) was 99.91 % area and the “Purity of DMVT-505” value ([1]; in Olive oil, t = 2 weeks, 70° C.) was 99.74 % area. The “Purity of DMVT-505” value ([1]; in PEG 200, t = 0) was 99.91 % area, the “Purity of DMVT-505” value ([1]; in PEG 200, t = 2 weeks, 40° C.) was 99.86 % area and the “Purity of DMVT-505” value ([1]; in PEG 200, t = 2 weeks, 70° C.) was 98.56 % area. For the same molecule, the “Purity of DMVT-505” value ([1]; in PEG 400, t = 0) was 99.87 % area, the “Purity of DMVT-505” value ([1]; in PEG 400, t = 2 weeks, 40° C.) was 99.30 % area and the “Purity of DMVT-505” value ([1]; in PEG 400, t = 2 weeks, 70° C.) was 98.63 % area. The “Purity of DMVT-505” value ([1]; in Propylene glycol, t = 0) was 99.90 % area, the “Purity of DMVT-505” value ([1]; in Propylene glycol, t = 2 weeks, 40° C.) was 99.51 % area and the “Purity of DMVT-505” value ([1]; in Propylene glycol, t = 2 weeks, 70° C.) was 99.23 % area. For the same molecule, the “Purity of DMVT-505” value ([1]; in Sesame oil, t = 0) was 100.00 % area, the “Purity of DMVT-505” value ([1]; in Sesame oil, t = 2 weeks, 40° C.) was 99.94 % area and the “Purity of DMVT-505” value ([1]; in Sesame oil, t = 2 weeks, 70° C.) was 99.67 % area. For the same molecule, the “Purity of DMVT-505” value ([1]; in Sorbitan monooleate (Span 80), t = 0) was 100.00 % area, the “Purity of DMVT-505” value ([1]; in Sorbitan monooleate (Span 80), t = 2 weeks, 40° C.) was 100.00 % area and the “Purity of DMVT-505” value ([1]; in Sorbitan monooleate (Span 80), t = 2 weeks, 70° C.) was 99.79 % area. The “Purity of DMVT-505” value ([1]; in Sunflower oil, t = 0) was 100.00 % area, the “Purity of DMVT-505” value ([1]; in Sunflower oil, t = 2 weeks, 40° C.) was 100.00 % area and the “Purity of DMVT-505” value ([1]; in Sunflower oil, t = 2 weeks, 70° C.) was 99.51 % area. The “Average saturated solubility of DMVT-505 (mean of n = 3)” value ([2]; in Almond oil) was 11.94 % w/w, the “Average saturated solubility of DMVT-505 (mean of n = 3)” value ([2]; in Aloe vera juice) was 0.01 % w/w and the “Average saturated solubility of DMVT-505 (mean of n = 3)” value ([2]; in Castor oil) was 7.06 % w/w. For the same molecule, the “Average saturated solubility of DMVT-505” value ([2]; in Dipropylene glycol) was ≥20 (visual solubility) % w/w, the “Average saturated solubility of DMVT-505” value ([2]; in Ethanol) was ≥20 (visual solubility) % w/w and the “Average saturated solubility of DMVT-505” value ([2]; in Isopropyl myristate) was ≥20 (visual solubility) % w/w. The “Average saturated solubility of DMVT-505 (mean of n = 3)” value ([2]; in Jojoba oil) was 8.19 % w/w, the “Average saturated solubility of DMVT-505 (mean of n = 3)” value ([2]; in Kollicream ® 3C (cocoyl caprylocaprate)) was 19.03 % w/w and the “Average saturated solubility of DMVT-505 (mean of n = 3)” value ([2]; in Kollicream ® OA (oleyl alcohol)) was 15.82 % w/w. The “Average saturated solubility of DMVT-505 (mean of n = 3)” value ([2]; in Kollicream ® OD (octyldodecanol)) was 11.03 % w/w, the “Average saturated solubility of DMVT-505” value ([2]; in MethoxyPEG 350) was ≥20 (visual solubility) % w/w and the “Average saturated solubility of DMVT-505 (mean of n = 3)” value ([2]; in Olive oil) was 11.35 % w/w. The “Average saturated solubility of DMVT-505” value ([2]; in PEG 200) was ≥20% (visual solubility) % w/w, the “Average saturated solubility of DMVT-505 (mean of n = 3)” value ([2]; in Safflower oil) was 11.68 % w/w and the “Average saturated solubility of DMVT-505 (mean of n = 3)” value ([2]; in Sesame oil) was 11.56 % w/w. The “Average saturated solubility of DMVT-505 (mean of n = 3)” value ([2]; in Soyabean oil) was 11.68 % w/w, the “Average saturated solubility of DMVT-505 (mean of n = 3)” value ([2]; in Sunflower oil) was 12.05 % w/w and the “Average saturated solubility of DMVT-505 (mean of n = 3)” value ([2]; in Walnut oil) was 12.43 % w/w. For the same molecule, the “Solubility (tapinarof saturated solubility)” value ([3]; in Benzyl alcohol) was 193 mg/g, the “Solubility (tapinarof saturated solubility)” value ([3]; in Diethyl sebacate) was 488 mg/g and the “Solubility (tapinarof saturated solubility)” value ([3]; in Diisopropyl adipate) was 187 mg/g. For the same molecule, the “Solubility (tapinarof saturated solubility)” value ([3]; in Dimethyl isosorbide) was 496 mg/g, the “Solubility (tapinarof saturated solubility)” value ([3]; in Glycerol) was 14 mg/g and the “Solubility (tapinarof saturated solubility)” value ([3]; in Hexylene glycol) was 386 mg/g. The “Solubility (tapinarof saturated solubility)” value ([3]; in Isopropyl alcohol) was 485 mg/g, the “Solubility (tapinarof saturated solubility)” value ([3]; in Isopropyl palmitate) was 231 mg/g and the “Solubility (tapinarof saturated solubility)” value ([3]; in Medium chain triglycerides) was 273 mg/g. For the same molecule, the “Solubility (tapinarof saturated solubility)” value ([3]; in Mineral oil) was 0.26 mg/g, the “Solubility (tapinarof saturated solubility)” value ([3]; in Phenoxyethanol) was 381 mg/g and the “Solubility (tapinarof saturated solubility)” value ([3]; in Polyethylene glycol 400) was 373 mg/g. For the same molecule, the “Solubility (tapinarof saturated solubility)” value ([3]; in Polysorbate 80) was 263 mg/g, the “Solubility (tapinarof saturated solubility)” value ([3]; in Propylene carbonate) was 506 mg/g and the “Solubility (tapinarof saturated solubility)” value ([3]; in Propylene glycol) was 444 mg/g. For the same molecule, the “Solubility (tapinarof saturated solubility)” value ([3]; in Sorbitan oleate) was 137 mg/g, the “Solubility (tapinarof saturated solubility)” value ([3]; in Water) was 0.14 mg/g and the “Solubility (tapinarof saturated solubility)” value ([3]; in diethylene glycol monoethyl ether (DEGEE)) was 526 mg/g. For the same molecule, the “Sensitivity to oxidation and photo degradation” value [4] was “sensitive to oxidation and photo degradation”.
